Drawing on paper doi:10.1101/2023.12.04.569845, “Identification of 4-(6-((2-methoxyphenyl)amino)pyrazin-2-yl)benzoic acids as CSNK2A inhibitors with antiviral activity and improved selectivity over PIM3” (bioRxiv, 2023), this text covers ΔTm for three compounds.

Each structure is given as a SMILES string. Like-named read-outs stand apart in the source and are kept apart here.

Assay in all cases: biochemical
Common to all, as to design: Thermal shift (DSF, SYPRO Orange) Tm shift of recombinant kinase domains at 10 uM compound

Assay [1] deals with CDKL1 (Homo sapiens, UniProt Q00532).
Chain of CDKL1 (Q00532 whole entry): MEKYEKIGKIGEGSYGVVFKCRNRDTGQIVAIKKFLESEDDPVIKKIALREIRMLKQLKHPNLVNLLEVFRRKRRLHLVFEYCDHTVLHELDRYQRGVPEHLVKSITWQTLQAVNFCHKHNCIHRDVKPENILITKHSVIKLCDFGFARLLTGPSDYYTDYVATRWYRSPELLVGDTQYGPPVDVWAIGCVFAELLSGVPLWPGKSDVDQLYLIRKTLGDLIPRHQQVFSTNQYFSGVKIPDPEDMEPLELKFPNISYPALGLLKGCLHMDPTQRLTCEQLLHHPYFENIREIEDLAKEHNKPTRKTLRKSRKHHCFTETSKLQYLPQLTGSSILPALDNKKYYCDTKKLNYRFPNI
The target of assay [2] is DAPK1 (Homo sapiens, UniProt P53355).
Chain of DAPK1 (P53355 whole entry): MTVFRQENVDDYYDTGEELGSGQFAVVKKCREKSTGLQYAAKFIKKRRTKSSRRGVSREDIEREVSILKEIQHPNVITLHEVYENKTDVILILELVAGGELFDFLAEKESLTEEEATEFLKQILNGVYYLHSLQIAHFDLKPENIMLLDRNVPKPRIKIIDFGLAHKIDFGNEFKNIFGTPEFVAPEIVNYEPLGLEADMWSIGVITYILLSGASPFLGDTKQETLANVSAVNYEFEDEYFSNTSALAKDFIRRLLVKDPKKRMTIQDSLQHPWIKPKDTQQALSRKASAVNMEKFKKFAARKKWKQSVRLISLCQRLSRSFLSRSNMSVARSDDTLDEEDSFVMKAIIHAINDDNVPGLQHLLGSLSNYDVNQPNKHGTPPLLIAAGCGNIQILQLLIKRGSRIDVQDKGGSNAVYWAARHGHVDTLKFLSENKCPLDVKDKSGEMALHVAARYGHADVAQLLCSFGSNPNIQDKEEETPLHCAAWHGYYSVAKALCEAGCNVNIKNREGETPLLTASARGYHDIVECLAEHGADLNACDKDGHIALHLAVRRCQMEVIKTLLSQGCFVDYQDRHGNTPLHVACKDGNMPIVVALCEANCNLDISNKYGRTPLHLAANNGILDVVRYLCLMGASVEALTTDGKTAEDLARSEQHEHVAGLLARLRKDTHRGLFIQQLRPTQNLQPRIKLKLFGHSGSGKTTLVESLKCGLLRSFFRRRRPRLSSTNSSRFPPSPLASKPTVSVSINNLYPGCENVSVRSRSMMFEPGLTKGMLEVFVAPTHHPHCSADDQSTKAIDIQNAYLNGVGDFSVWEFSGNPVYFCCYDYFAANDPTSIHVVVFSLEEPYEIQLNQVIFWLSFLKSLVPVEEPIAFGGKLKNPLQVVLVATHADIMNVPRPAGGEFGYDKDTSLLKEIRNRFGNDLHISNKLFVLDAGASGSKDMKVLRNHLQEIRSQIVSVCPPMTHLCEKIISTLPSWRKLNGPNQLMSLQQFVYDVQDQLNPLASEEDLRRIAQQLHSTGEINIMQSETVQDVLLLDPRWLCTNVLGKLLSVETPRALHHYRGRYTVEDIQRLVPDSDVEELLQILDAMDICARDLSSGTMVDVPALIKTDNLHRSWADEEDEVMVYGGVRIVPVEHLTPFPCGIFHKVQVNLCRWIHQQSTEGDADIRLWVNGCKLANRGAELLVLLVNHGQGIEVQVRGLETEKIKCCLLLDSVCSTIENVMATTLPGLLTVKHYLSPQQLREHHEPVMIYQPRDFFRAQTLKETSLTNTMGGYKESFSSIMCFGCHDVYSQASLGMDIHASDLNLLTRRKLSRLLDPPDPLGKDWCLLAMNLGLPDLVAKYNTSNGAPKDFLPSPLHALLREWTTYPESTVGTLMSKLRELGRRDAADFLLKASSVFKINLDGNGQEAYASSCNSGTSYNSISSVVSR
Assay [3] has as its target MARK3 (Homo sapiens, UniProt P27448).
Assay [4] has as its target T1, NDR2 (Homo sapiens, UniProt Q9Y2H1).
T1 construct: gene STK38L

Assay [5] addresses MELK (Homo sapiens, UniProt Q14680).
Assay [6] addresses T2, GAK (Homo sapiens, UniProt O14976).
T2 sequence (O14976 1-1311): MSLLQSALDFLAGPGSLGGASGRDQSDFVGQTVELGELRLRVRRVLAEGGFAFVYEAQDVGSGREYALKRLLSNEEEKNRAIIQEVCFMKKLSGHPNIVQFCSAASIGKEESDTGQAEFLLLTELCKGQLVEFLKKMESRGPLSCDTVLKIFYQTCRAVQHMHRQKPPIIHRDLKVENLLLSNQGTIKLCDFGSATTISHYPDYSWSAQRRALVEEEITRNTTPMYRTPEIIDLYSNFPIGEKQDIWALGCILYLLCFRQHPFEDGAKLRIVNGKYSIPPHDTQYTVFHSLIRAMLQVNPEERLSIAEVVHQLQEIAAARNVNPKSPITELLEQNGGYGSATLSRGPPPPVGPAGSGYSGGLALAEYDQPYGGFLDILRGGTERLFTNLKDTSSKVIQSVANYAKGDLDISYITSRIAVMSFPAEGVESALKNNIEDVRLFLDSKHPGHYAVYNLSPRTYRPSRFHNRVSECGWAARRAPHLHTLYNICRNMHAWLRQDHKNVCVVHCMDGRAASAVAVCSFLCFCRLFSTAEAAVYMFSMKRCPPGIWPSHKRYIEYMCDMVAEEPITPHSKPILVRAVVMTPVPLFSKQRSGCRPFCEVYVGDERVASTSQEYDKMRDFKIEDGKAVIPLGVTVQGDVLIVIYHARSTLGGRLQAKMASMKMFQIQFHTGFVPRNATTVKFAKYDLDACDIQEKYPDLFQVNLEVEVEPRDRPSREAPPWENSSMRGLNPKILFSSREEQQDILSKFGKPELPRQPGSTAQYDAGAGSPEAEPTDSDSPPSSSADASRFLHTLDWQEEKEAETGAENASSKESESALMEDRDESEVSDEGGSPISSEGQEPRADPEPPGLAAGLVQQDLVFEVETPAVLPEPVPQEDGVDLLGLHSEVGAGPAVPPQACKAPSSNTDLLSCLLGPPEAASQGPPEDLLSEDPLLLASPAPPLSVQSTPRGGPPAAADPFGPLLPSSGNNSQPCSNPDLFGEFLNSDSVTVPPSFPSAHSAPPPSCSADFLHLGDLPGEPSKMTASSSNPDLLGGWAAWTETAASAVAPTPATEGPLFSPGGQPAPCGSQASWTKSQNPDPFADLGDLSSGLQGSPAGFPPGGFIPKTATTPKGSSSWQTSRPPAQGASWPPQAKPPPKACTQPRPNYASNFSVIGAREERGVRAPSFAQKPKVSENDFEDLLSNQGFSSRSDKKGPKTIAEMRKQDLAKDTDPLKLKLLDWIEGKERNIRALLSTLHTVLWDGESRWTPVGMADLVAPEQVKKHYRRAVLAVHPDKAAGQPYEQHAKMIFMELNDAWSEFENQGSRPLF

Assay [7] has as its target PAK1 (Homo sapiens, UniProt Q13153).
Assay [8] addresses T3, NQO2 (Homo sapiens, UniProt P16083).
T3 sequence (P16083 1-231): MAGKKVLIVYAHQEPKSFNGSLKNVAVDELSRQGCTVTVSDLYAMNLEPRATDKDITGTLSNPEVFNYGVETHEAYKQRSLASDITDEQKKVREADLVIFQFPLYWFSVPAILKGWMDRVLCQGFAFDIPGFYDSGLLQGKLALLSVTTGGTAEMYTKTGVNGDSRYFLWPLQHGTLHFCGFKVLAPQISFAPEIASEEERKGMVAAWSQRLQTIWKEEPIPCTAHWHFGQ

In assay [9] the target is T4, MSK1_b (Homo sapiens, UniProt O75582).
T4 construct: gene RPS6KA5; second (C-terminal) kinase domain
T4 sequence (O75582 whole entry, the tested form may be a part): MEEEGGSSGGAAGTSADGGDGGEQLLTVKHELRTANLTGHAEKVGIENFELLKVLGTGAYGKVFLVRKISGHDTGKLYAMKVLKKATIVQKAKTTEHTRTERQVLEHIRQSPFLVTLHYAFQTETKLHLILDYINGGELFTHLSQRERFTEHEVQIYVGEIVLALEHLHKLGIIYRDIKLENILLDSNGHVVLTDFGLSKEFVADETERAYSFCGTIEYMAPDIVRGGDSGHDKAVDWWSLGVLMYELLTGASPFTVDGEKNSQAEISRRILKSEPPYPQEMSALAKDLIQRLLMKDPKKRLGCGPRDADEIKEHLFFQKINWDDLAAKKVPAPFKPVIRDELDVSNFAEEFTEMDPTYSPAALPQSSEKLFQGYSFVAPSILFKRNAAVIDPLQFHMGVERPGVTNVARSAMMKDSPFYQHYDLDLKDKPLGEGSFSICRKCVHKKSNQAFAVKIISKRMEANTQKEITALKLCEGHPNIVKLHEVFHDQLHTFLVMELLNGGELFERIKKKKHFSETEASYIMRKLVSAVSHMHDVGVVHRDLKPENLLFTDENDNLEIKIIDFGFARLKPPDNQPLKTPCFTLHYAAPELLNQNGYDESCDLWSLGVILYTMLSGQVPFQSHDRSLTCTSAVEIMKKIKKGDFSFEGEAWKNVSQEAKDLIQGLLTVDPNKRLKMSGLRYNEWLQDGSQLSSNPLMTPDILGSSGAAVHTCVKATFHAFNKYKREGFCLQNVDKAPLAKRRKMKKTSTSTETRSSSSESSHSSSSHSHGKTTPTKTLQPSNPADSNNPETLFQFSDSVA

The target in assay [10] is T5, AurA (Homo sapiens, UniProt O14965).
T5 construct: gene AURKA
T5 sequence (O14965 1-403): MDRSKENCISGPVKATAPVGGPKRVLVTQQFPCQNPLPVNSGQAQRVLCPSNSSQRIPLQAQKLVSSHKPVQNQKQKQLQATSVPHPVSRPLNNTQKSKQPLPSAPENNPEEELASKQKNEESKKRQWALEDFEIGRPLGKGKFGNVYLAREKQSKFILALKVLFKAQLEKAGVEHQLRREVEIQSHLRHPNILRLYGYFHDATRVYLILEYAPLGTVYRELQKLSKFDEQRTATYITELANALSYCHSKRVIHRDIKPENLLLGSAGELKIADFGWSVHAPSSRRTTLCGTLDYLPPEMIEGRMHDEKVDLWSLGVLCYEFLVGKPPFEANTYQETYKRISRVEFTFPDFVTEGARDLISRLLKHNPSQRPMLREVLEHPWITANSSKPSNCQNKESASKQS

Chain of MARK3 (P27448 whole entry): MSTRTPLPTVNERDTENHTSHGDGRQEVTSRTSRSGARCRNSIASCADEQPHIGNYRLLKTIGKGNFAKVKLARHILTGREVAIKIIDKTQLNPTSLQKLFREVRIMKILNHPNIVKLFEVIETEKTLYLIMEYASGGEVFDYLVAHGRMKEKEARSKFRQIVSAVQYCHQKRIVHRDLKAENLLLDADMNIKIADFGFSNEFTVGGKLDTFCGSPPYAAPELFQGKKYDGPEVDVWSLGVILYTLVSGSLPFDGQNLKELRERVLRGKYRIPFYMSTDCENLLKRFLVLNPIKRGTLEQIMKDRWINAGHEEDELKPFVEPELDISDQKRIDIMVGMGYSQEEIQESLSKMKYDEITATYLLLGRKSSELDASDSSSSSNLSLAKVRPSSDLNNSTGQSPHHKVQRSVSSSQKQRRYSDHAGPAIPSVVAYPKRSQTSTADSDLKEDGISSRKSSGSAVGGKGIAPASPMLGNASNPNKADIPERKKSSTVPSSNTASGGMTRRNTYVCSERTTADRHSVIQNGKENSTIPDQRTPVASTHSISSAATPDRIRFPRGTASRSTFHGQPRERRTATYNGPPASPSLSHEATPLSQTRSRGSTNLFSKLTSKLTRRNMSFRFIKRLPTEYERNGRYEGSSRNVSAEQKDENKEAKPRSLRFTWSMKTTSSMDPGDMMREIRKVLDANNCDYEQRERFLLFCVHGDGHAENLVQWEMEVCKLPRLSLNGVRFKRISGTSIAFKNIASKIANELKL
Chain of PAK1 (Q13153 whole entry): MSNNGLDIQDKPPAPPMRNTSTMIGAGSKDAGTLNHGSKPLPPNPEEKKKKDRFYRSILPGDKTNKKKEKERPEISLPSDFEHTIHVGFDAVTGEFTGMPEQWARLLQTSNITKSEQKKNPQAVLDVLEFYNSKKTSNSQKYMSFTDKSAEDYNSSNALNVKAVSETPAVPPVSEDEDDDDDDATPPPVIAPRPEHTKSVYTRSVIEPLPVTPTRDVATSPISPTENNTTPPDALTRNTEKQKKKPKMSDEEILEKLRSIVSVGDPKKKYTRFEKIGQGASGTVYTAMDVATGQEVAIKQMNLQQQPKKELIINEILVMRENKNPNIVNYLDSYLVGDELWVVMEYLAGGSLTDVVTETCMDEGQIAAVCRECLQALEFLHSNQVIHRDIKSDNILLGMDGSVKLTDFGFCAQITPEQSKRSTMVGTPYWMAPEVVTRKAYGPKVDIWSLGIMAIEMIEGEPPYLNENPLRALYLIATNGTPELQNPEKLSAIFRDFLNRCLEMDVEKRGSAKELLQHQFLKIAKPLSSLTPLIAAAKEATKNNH
T1 sequence (Q9Y2H1 whole entry): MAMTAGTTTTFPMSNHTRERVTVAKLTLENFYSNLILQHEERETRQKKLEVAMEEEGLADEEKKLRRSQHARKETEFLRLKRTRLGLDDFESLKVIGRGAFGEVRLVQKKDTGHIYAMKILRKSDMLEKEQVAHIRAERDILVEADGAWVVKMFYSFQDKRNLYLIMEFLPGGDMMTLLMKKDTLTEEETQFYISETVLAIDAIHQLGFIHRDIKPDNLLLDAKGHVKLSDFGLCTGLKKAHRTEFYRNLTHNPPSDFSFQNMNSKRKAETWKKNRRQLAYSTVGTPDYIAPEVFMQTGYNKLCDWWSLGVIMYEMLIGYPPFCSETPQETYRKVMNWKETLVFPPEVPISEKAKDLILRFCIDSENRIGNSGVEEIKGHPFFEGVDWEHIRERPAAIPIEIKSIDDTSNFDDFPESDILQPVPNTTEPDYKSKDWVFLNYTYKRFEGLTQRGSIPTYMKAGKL
Chain of MELK (Q14680 whole entry): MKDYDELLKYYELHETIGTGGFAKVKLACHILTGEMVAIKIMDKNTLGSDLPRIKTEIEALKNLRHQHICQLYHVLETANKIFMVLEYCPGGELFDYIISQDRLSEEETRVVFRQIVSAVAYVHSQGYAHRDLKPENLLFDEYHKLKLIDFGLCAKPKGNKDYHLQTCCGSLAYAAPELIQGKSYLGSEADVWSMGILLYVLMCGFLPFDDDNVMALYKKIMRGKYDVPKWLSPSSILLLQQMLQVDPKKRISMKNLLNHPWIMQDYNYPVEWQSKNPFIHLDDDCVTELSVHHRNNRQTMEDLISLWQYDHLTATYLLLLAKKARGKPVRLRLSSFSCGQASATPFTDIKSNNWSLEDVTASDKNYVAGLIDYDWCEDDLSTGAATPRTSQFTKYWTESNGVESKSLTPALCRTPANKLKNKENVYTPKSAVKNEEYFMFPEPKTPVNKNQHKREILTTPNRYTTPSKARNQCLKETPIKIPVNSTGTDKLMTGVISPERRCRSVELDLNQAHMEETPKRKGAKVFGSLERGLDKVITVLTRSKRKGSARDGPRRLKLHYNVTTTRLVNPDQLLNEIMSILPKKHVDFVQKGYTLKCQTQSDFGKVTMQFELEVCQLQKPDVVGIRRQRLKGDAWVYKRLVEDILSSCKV

Regarding `COc1ccc(OC(C)C)cc1Nc1cncc(-c2ccc(C(=O)O)cc2)n1` [7c], the ΔTm at 10 µM in assay [1] (read-out: 7c) is 1 °C; in assay [2] (read-out: 7c), 6 °C; in [3] (read-out: 7c) it was -1 °C; in [4] (read-out: 7c) it was -1 °C; in assay [5] (read-out: 7c), 4 °C; in assay [6] (read-out: 7c), 7 °C. Moreover, the ΔTm at 10 µM was -1 °C in assay [7] (read-out: 7c), -1 °C in assay [8] (read-out: 7c), 6 °C in assay [9] (read-out: 7c) and 4 °C in assay [10] (read-out: 7c).
Regarding `CC(C)Oc1ccc2ccn(-c3cncc(-c4ccc(C(=O)O)cc4)n3)c2c1` [6c], the ΔTm at 10 µM in assay [1] (read-out: 6c) is 3 °C; in assay [2] (read-out: 6c), 7 °C; in [3] (read-out: 6c) it was -1 °C; in [4] (read-out: 6c) it was -1 °C; in assay [5] (read-out: 6c), 4 °C; in assay [6] (read-out: 6c), 9 °C. Besides, the ΔTm at 10 µM was 0 °C in assay [7] (read-out: 6c), -1 °C in assay [8] (read-out: 6c), 6 °C in [9] (read-out: 6c) and 8 °C in assay [10] (read-out: 6c).
Consider `CC(C)Nc1ccc2cnn(-c3cncc(-c4ccc(C(=O)O)cc4)n3)c2c1` [compound 2, 2], for which the ΔTm at 10 µM is 2 °C in assay [1] (read-out: 2); 9 °C in [2] (read-out: 2); 0 °C in [3] (read-out: 2); -2 °C in [4] (read-out: 2); 6 °C in [5] (read-out: 2); 11 °C in assay [6] (read-out: 2). Further, the ΔTm at 10 µM in [7] (read-out: 2) is 1 °C; in [8] (read-out: 2), -1 °C; in [9] (read-out: 2), 11 °C; in assay [10] (read-out: 2), 10 °C.
